Assays:
[1] = tested on: forelimb function lost after internal capsule hemorrhage-induced brain injury; assay: Recovery by training of forelimb function lost after internal capsule hemorrhage-induced brain injury (mouse models); type: in vivo, C57BL/6J mice; conditions: mice, oral once a day 20 mg/kg/time plus training 30 min/day, evaluated 31-63 days after induction, compared to trained control group, FIG. 2
Description: Action of enhancing the recovery effect obtained by training the forelimb function lost after internal capsule hemorrhage-induced brain injury was examined, using internal capsule hemorrhage mouse models. A test was carried out using the following method, by referring to Plos One, Vol. 8, e67691 (2013) and Behav Brain Res., Vol. 20, Issue 225, Pages 126-34 (2011). Six-week-old male C57BL/6J mice (Charles River Japan) were used in the test. The mice were raised in an environment in which they had free access to feed and water, under a light-dark cycle of 12 hours (light period: 7:00-19:00, dark period: 19:00-7:00). The mice were randomly assigned to the groups. [table] An acrylic rectangular enclosure (length×width×height; 15×8.5×20 cm) in which only the front face of the four faces was transparent, and the other three faces were black was used. A slit measuring 0.5 cm in width×13 cm in height was formed on the right side of the front face when seen from the front. A transparent acrylic plate measuring 8.5 cm in width×1.25 cm in height was used as the feed plate. Diced almonds (K's Factory, Co., Ltd.) were used as the feed for use in the evaluation. […] A case where a mouse was able to extend the left forelimb through the slit, and carry the diced almond into the mouth without dropping it was determined to be successful. […]

[2] = tested on: forelimb function lost after freezing damage-induced brain injury; assay: Recovery by training of forelimb function lost after freezing damage-induced brain injury; type: in vivo, C57BL/6J mice; conditions: mice, oral twice a day 30 mg/kg/time plus training 30 min/day, evaluated 21-49 days after damage, compared to the other groups (control, Compound A without training, training only), FIG. 1
Description: Action of enhancing the recovery effect obtained by training the forelimb function lost after freezing damage-induced brain injury was examined. A test was performed using the following method, by referring to the method described in Journal of Neuroscience Methods, Vol. 193, Issue 1, Pages 82-85 (2010) and Nature, Vol. 462, Issue 7275, Pages 915-919 (2009). Six-week-old male C57BL/6J mice (Charles River Japan) were used in the test. The mice were raised in an environment in which they had free access to feed and water, under a light-dark cycle of 12 hours (light period: 7:00-19:00, dark period: 19:00-7:00). The mice were randomly assigned to the groups. [table] An acrylic rectangular enclosure (length×width×height; 15×8.5×20 cm) in which only the front face of the four faces was transparent, and the other three faces were black was used. A slit measuring 0.5 cm in width×13 cm in height was formed on the right side of the front face when seen from the front. A transparent acrylic plate measuring 8.5 cm in width×1.25 cm in height was used as the feed plate. Diced almonds (K's Factory, Co., Ltd.) were used as the feed for use in the evaluation. […] A case where a mouse was able to extend the left forelimb through the slit, and carry the diced almond into the mouth without dropping it was determined to be successful. […]

[3] = tested on: upper limb function lost after brain injury; assay: Recovery by rehabilitation-like training of upper limb function lost after brain injury (internal capsule hemorrhage cynomolgus monkey models); type: in vivo, cynomolgus monkeys; conditions: 1 animal
Description: Test Example 3 Action of enhancing the recovery effect obtained with rehabilitation-like training of the upper limb function lost after brain injury was examined, using internal capsule hemorrhage cynomolgus monkey models.
Two male cynomolgus monkeys (Tsukuba Primate Research Center, National Institute of Biomedical Innovation) were used in the test. The cynomolgus monkeys were raised in a breeding cage for old world monkeys (length×width×height; 79×47×80 cm) in which they had free access to feed and water, under a light-dark cycle of 12 hours (light period: 7:00-19:00 dark period: 19:00-7:00).
Motor learning and an upper limb function evaluation were performed by making the cynomolgus monkeys take feed provided in front of the breeding cage. A 3.5- or 7 mm square piece of apple was used as the feed for use in the evaluation.
In order to allow the cynomolgus monkeys to acclimate to the testing apparatus, and determine the dominant hand of each of the individuals, a 7 mm square piece of apple attached to a needle tip was provided in the center of the front face of the cage, and the behavior of the cynomolgus monkey taking the feed was observed. The hand more often used in a total of 150 trials (30 trials a day for 5 days) was determined as its dominant hand. […]

## OC1CN(CCCOCCc2ccc3sccc3c2)C1 [Compound A, 1-(3-(2-(1-benzothiophen-5-yl)ethoxy)propyl)azetidin-3-ol]
[1]
  relative recovery rate (success rate of taking feed with left forelimb): much higher relative recovery rate
[2]
  relative recovery rate (success rate of taking feed with left forelimb): much higher relative recovery rate within a short period
[3]; intramuscular once a day 3 mg/kg/time plus rehabilitation-like training, versus trained animal without Compound A (recovery limited)
  recovery after the brain injury (upper limb function): remarkable tendency to recovery was observed
[3]; intramuscular once a day 3 mg/kg/time, after the beginning of the rehabilitation-like training, not observed in animal without Compound A
  accurate grasping: accurate grasping similar to that before the brain injury was observed

From patent US10471044B2, “Post nerve injury rehabilitation effect-enhancing agent comprising alkyl ether derivative or salt thereof” (FUJIFILM Toyama Chemical Co., Ltd., priority 2014, dated 2019)
